Read-outs that look alike come from different tables or passages of the source.
What was measured:
[1] = system: B35 rat neuroblastoma cells; test: Cellular O-GlcNAcylation assay (tau O-GlcNAc S400, ICC); assay type: cell-based; settings: Neuroblastoma cell, 16 h, tau O-GlcNAcylated at serine 400
Procedure: The following day cells were treated with appropriate concentration of a solution of inhibitor for 16 h at 37° C. in 5% CO2. Cells were fixed in 100 μl 4% paraformaldehyde for 15 min at room temperature, followed by three washes in PBS buffer. The cells were then permeabilized with 0.1% Triton X-100 for 60 min at room temperature. After three washes in PBS the cells were blocked with 10% goat serum containing 1% BSA in PBS buffer for two hours at room temperature. The cells were then incubated with a monoclonal rabbit antibody specific for tau O-GlcNAcylated at serine 400 (Epitomics) at a 1:1000 dilution overnight at 4° C. […] To calculate an EC50 the total peak intensity was plotted against the concentration of inhibitor to produce a sigmoidal dose response curve.

His-Tagged hOGA = target: T1, His-Tagged hOGA (Homo sapiens, UniProt O60502); test: Human O-GlcNAcase enzyme inhibition assay; assay type: biochemical
T1 sequence (O60502 1-916): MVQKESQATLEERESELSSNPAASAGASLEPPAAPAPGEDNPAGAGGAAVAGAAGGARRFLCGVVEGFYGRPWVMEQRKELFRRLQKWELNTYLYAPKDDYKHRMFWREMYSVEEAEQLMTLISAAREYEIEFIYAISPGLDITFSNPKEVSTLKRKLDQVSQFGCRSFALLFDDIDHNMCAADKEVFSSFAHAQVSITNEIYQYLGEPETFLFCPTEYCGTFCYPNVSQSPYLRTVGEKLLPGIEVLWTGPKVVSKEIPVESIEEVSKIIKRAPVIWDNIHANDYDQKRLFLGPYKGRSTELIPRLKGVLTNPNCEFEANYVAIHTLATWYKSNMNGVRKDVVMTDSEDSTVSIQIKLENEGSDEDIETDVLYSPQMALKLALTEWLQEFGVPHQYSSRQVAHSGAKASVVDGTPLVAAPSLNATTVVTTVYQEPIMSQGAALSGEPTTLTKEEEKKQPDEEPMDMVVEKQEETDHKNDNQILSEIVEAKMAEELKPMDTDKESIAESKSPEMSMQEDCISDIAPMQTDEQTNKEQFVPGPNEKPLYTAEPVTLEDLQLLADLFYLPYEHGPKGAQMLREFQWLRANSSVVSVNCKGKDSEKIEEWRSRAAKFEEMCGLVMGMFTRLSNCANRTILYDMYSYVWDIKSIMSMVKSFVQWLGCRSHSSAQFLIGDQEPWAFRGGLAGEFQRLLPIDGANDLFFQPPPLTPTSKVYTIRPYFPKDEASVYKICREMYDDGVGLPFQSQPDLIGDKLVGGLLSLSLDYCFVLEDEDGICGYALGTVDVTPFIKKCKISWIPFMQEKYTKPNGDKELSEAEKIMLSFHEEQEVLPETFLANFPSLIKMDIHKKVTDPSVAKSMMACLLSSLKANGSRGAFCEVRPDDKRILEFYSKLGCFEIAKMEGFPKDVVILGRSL
Procedure: The following reaction components were added to a final volume of 10 μL in Mcllvaine's Buffer (pH 6.5): 20 nM His-Tagged hOGA and 10 μM Fluorescein mono-beta-D-(2-deoxy-2-N-acetyl) glucopyranoside (FL-GlcNAc; Marker Gene Technologies Inc, Part # M1485). […] The amount of fluorescence measured was plotted against the concentration of inhibitor to produce a sigmoidal dose response curve, from which an IC50 was calculated.

[2] = 20 nM His-Tagged hOGA, 10 μM FL-GlcNAc, pH 6.5, 60 min, read-out: hOGA enzyme inhibition (IC50)

EC50 [1] [nM] | IC50 (His-Tagged hOGA; [2]) [nM] | IC50 (His-Tagged hOGA) [nM] | Structure (SMILES)
1000 to 10000 | < 200 | – | CC(=O)Nc1ncc(CN(C)CCCc2ccccc2)s1 [Compound 21, N-(5-{[methyl-(3-phenyl-propyl)-amino]-methyl}-thiazol-2-yl)-acetamide]
1000 to 10000 | 200 to 1000 | – | CC(=O)Nc1ncc(CN2CC(c3ccccc3)C2)s1 [Compound 22, N-[5-(3-phenyl-azetidin-1-ylmethyl)-thiazol-2-yl]-acetamide]
200 to 1000 | 1000 to 10000 | – | CC(=O)Nc1ncc(CN2CCCCC2)s1 [Compound 25, N-(5-piperidin-1-ylmethyl-thiazol-2-yl)-acetamide]
1000 to 10000 | < 200 | – | CC(=O)Nc1ncc(CN2CCC(C(C)C)CC2)s1 [Compound 26, N-[5-(4-isopropylpiperidin-1-ylmethyl)thiazol-2-yl]-acetamide]
< 200 | < 200 | – | CC(=O)Nc1ncc(CN2CCC(C3CCCCC3)CC2)s1 [Compound 27, N-(5-((4-cyclohexylpiperidin-1-yl)methyl)thiazol-2-yl)acetamide]
< 200 | – | < 200 | CC(=O)Nc1ncc(CN2CCC(Cc3ccccc3)CC2)s1 [Compound 28, N-(5-((4-benzylpiperidin-1-yl)methyl)thiazol-2-yl)acetamide]
1000 to 10000 | < 200 | – | CC(=O)Nc1ncc(CN2CCCC(c3ccccc3)C2)s1 (stereo not drawn) [Compound 29, N-(5-((3-phenylpiperidin-1-yl)methyl)thiazol-2-yl)acetamide]
200 to 1000 | 200 to 1000 | – | CC(=O)Nc1ncc(CN2CCC(c3ccccc3F)CC2)s1 [Compound 30, N-(5-((4-(2-fluorophenyl)piperidin-1-yl)methyl)thiazol-2-yl)acetamide]
< 200 | < 200 | – | CC(=O)Nc1ncc(CN2CCC(c3cccc(C)c3)CC2)s1 [Compound 31, N-(5-((4-(m-tolyl)piperidin-1-yl)methyl)thiazol-2-yl)acetamide]
200 to 1000 | < 200 | – | COc1cccc(C2CCN(Cc3cnc(NC(C)=O)s3)CC2)c1 [Compound 32, N-(5-((4-(3-methoxyphenyl)piperidin-1-yl)methyl)thiazol-2-yl)acetamide]
200 to 1000 | 200 to 1000 | – | COc1ccccc1C1CCN(Cc2cnc(NC(C)=O)s2)CC1 [Compound 33, N-(5-((4-(2-methoxyphenyl)piperidin-1-yl)methyl)thiazol-2-yl)acetamide]
200 to 1000 | 1000 to 10000 | – | CC(=O)Nc1ncc(CN2CCC(c3ccccc3C#N)CC2)s1 [Compound 35, N-(5-((4-(2-cyanophenyl)piperidin-1-yl)methyl)thiazol-2-yl)acetamide]
200 to 1000 | 200 to 1000 | – | CC(=O)Nc1ncc(CN2CCC(c3ccc(C#N)cc3)CC2)s1 [Compound 36, N-(5-((4-(4-cyanophenyl)piperidin-1-yl)methyl)thiazol-2-yl)acetamide]
< 200 | 200 to 1000 | – | CC(=O)Nc1ncc(CN2CCC(c3ccccc3O)CC2)s1 [Compound 37, N-(5-((4-(2-hydroxyphenyl)piperidin-1-yl)methyl)thiazol-2-yl)acetamide]
200 to 1000 | < 200 | – | CC(=O)Nc1ncc(CN2CCC(c3ccc(O)cc3)CC2)s1 [Compound 38, N-(5-((4-(4-hydroxyphenyl)piperidin-1-yl)methyl)thiazol-2-yl)acetamide]
200 to 1000 | 200 to 1000 | – | CC(=O)Nc1ncc(CN2CCC(c3cccc(O)c3)CC2)s1 [Compound 39, N-(5-((4-(3-hydroxyphenyl)piperidin-1-yl)methyl)thiazol-2-yl)acetamide]
200 to 1000 | 200 to 1000 | – | CC(=O)Nc1ncc(C(C)N2CCC(c3ccccc3)CC2)s1 (stereo not drawn) [Compound 40, N-(5-(1-(4-phenylpiperidin-1-yl)ethyl)thiazol-2-yl)acetamide]
1000 to 10000 | 1000 to 10000 | – | CC(=O)Nc1ncc(CN2CCC(F)(c3ccccc3)CC2)s1 [Compound 41, N-[5-(4-fluoro-4-phenyl-piperidin-1-ylmethyl)-thiazol-2-yl]-acetamide]
200 to 1000 | 200 to 1000 | – | CC(=O)Nc1ncc(CN2CCC(c3ccc(F)cc3)CC2)s1 [Compound 42, N-(5-((4-(4-fluorophenyl)piperidin-1-yl)methyl)thiazol-2-yl)acetamide]
200 to 1000 | 1000 to 10000 | – | CC(=O)Nc1ncc(CN2CCC(c3ccccc3C)CC2)s1 [Compound 43, N-(5-((4-(o-tolyl)piperidin-1-yl)methyl)thiazol-2-yl)acetamide]
1000 to 10000 | 200 to 1000 | – | CC(=O)Nc1ncc(CN2CCC(c3ccc(C(=O)O)cc3)CC2)s1 [Compound 45, 4-(1-((2-acetamidothiazol-5-yl)methyl)piperidin-4-yl)benzoic acid]
